Assay [1] has as its system MV-4-11 cells (human acute myelogenous leukemia cell line carrying MLL-AF4 mutation). Put plainly: Cell proliferation assay, MV-4-11 (CellTiter-Glo). It is filed as cell-based. Conditions: Homo sapiens, MV4-11, 72 h. The gist of the method: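 MV-4-11 cells (3000/well, IMDM with 10% HIFBS and 50 μM β-mercaptoethanol) exposed to compound at 1.100–0.001 μM final, 0.1% DMSO, for 3 days at 37°C. Viability read by CellTiter-Glo luminescence on day 0 and day 3, normalised to day-0 and untreated wells.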

Assay [2] addresses Recombinant human Menin protein (2-610) / MLL polypeptide binding (Homo sapiens (Human), UniProt O00255). Put plainly: Menin and MLL protein binding at a molecular level (fluorescence polarization method). The following applies: inhibition of Menin / MLL polypeptide binding. Put shortly: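 Binding of recombinant human Menin (2-610) to 6-FAM-labelled MLL peptide measured by fluorescence polarization (ex 480/em 535 nm) in Tris/NaCl/TCEP buffer, pH 7.5, 2% DMSO. Compound preincubated with Menin 30 min at room temperature, then peptide added for 30 min in the dark. Tested at 1.000 down to 0.0005 μM final.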

The mark [3] stands for this setting: MV-4-11 cells, 3 days treatment, CellTiter-Glo, read-out: GI50.

Molecules are shown by their SMILES. Counter-ions that a name gives are not always drawn. Like-named read-outs stand apart in the source and are kept apart here.

This passage reports GI50 and IC50 results from patent US20260055108A1, “TRIAZINE COMPOUNDS AND USES THEREOF” (HUTCHMED LIMITED, priority 2022, published 2026).

By GI50 is commonly meant the concentration that inhibits growth by half. The term IC50 denotes the concentration needed to halve the response being measured.

Sequence of Recombinant human Menin protein (2-610) / MLL polypeptide binding (O00255 2-610): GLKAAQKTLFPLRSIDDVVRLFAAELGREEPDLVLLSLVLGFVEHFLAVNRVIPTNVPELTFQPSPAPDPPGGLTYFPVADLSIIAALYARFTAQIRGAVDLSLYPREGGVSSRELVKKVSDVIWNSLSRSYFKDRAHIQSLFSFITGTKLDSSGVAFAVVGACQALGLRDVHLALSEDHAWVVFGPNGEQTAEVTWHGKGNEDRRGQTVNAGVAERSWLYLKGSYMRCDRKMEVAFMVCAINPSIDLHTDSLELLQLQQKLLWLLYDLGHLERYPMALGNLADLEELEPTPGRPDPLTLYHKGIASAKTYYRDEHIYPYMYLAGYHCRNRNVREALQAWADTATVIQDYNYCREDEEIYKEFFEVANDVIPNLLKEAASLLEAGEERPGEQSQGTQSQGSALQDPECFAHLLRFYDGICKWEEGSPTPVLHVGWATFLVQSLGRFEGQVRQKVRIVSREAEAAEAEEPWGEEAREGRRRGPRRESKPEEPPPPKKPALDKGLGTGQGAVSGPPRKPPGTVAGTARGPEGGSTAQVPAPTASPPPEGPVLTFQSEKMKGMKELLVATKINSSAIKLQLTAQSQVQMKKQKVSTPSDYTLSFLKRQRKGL

On to `CCN(C(=O)c1cc(F)ccc1Oc1nncnc1N1CC2(CCN(CC3CCN(c4cccc(CO)n4)CC3)CC2)C1)C(C)C` [Compound 132, N-ethyl-5-fluoro-2-((5-(7-((1-(6-(hydroxymethyl)pyridin-2-yl)piperidin-4-yl)methyl)-2,7-diazaspiro[3.5]nonan-2-yl)-1,2,4-triazin-6-yl)oxy)-N-isopropylbenzamide], for which the GI50 in assay [1] (setting [3]) was 9 nM. Further, the IC50 in assay [2] came to 2.7 nM.

In the case of `C=Cc1ccc(N2CCC(CN3CCC4(CC3)CN(c3ncnnc3Oc3ccc(F)cc3C(=O)N(CC)C(C)C)C4)CC2)nn1` [Compound 133, N-ethyl-5-fluoro-N-isopropyl-2-((5-(7-((1-(6-vinylpyridazin-3-yl)piperidin-4-yl)methyl)-2,7-diazaspiro[3.5]nonan-2-yl)-1,2,4-triazin-6-yl)oxy)benzamide], the GI50 in assay [1] (setting [3]) was 4 nM. Moreover, in assay [2], the half-inhibitory concentration (IC50) is 2 nM.

With `C#Cc1ccc(N2CCC(CN3CCC4(CC3)CN(c3ncnnc3Oc3ccc(F)cc3C(=O)N(CC)C(C)C)C4)CC2)nn1` [Compound 134], the GI50 in assay [1] (setting [3]) is 2 nM. Further, in assay [2], the IC50 was 1.3 nM.

Consider `CCN(C(=O)c1cc(F)ccc1Oc1nncnc1N1CC2(CCN(CC3CCC(c4ccccn4)CC3)CC2)C1)C(C)C` (stereo not drawn) [Compound 135, N-ethyl-5-fluoro-N-isopropyl-2-((5-(7-((4-(pyridin-2-yl)cyclohexyl)methyl)-2,7-diazaspiro[3.5]nonan-2-yl)-1,2,4-triazin-6-yl)oxy)benzamide], for which, in assay [1] (setting [3]), the GI50 was determined as 22 nM. The IC50 in assay [2] amounted to 55.5 nM.

Consider `N#Cc1ccc(N2CCC(CN3CCC4(CC3)CN(c3ncnnc3Oc3ccc(F)cc3C3=C(F)C(O)CCC3)C4)CC2)nc1` (stereo not drawn) [Compound 136, 6-(4-((2-(6-((5,6′-difluoro-5′-hydroxy-2′,3′,4′,5′-tetrahydro-[1,1′-biphenyl]-2-yl)oxy)-1,2,4-triazin-5-yl)-2,7-diazaspiro[3.5]nonan-7-yl)methyl)piperidin-1-yl)nicotinonitrile], for which the GI50 in assay [1] (setting [3]) amounted to 170 nM. Besides, in assay [2], the IC50 stood at 184 nM.

Take `CCN(C(=O)c1cc(F)ccc1Oc1nncnc1N1CC2(CCN(CC3CCN(C4COC4)CC3)CC2)C1)C(C)C` [Compound 137, N-ethyl-5-fluoro-N-isopropyl-2-((5-(7-((1-(oxetan-3-yl)piperidin-4-yl)methyl)-2,7-diazaspiro[3.5]nonan-2-yl)-1,2,4-triazin-6-yl)oxy)benzamide]: in assay [1] (setting [3]), the GI50 was determined as 181 nM. In addition, the IC50 in assay [2] is 141 nM.

For the compound `CCN(C(=O)c1cc(F)ccc1Oc1nncnc1N1CC2(CCN(CC3CCN(Cc4c(C)cc(C)[nH]c4=O)CC3)CC2)C1)C(C)C` [Compound 138], the GI50 in assay [1] (setting [3]) is 409 nM. The IC50 in assay [2] was 102 nM.

For the compound `CCN(C(=O)c1cc(F)ccc1Oc1nncnc1N1CC(C2(N(C)Cc3ccc4[nH]c(C#N)cc4c3C)CC2)C1)C(C)C` [Compound 139, 2-((5-(3-(1-(((2-cyano-4-methyl-1H-indol-5-yl)methyl)(methyl)amino)cyclopropyl)azetidin-1-yl)-1,2,4-triazin-6-yl)oxy)-N-ethyl-5-fluoro-N-isopropylbenzamide], the GI50 in assay [1] (setting [3]) came to 23 nM. In addition, the 50% inhibitory concentration (IC50) in assay [2] is 6.1 nM.

Consider `CCN(C(=O)c1cc(F)ccc1Oc1nncnc1N1CC2(CCN(CC3(N(C)CCOC)CC3)CC2)C1)C(C)C` [Compound 140], for which the GI50 in assay [1] (setting [3]) was determined as 37 nM. Moreover, in assay [2], the half-inhibitory concentration (IC50) was determined as 31.6 nM.

As for `CCN(C(=O)c1cc(F)ccc1Oc1nncnc1N1CC(C2(N(Cc3ccc4[nH]c(C#N)cc4c3C)C(C)C)CC2)C1)C(C)C` [Compound 141], the GI50 in assay [1] (setting [3]) is 442 nM. Besides, the IC50 in assay [2] stood at 153 nM.

As to `CCN(C(=O)c1cc(F)ccc1Oc1nncnc1N1CCC(C2(N(C)Cc3ccc4[nH]c(C#N)cc4c3C)CC2)C1)C(C)C` (stereo not drawn) [Compound 142], the GI50 in assay [1] (setting [3]) came out at 257 nM. Also, the IC50 in assay [2] turned out to be 124 nM.

For `CCN(C(=O)c1cc(F)ccc1Oc1nncnc1N1CCC(C2(N(Cc3ccc4[nH]c(C#N)cc4c3C)C(C)C)CC2)C1)C(C)C` (stereo not drawn) [Compound 143], the 50% growth inhibitory concentration (GI50) in assay [1] (setting [3]) was 2950 nM. Besides, the IC50 in assay [2] is above 1000 nM.

As to `CCN(C(=O)c1cc(F)ccc1Oc1nncnc1N1CC2(CCN(CC3(N(C)C(=O)COC)CC3)CC2)C1)C(C)C` [Compound 144, N-ethyl-5-fluoro-N-isopropyl-2-((5-(7-((1-(2-methoxy-N-methylacetamido)cyclopropyl)methyl)-2,7-diazaspiro[3.5]nonan-2-yl)-1,2,4-triazin-6-yl)oxy)benzamide], the GI50 in assay [1] (setting [3]) is 644 nM. Moreover, the IC50 in assay [2] was determined as 616 nM.

As for `CCN(C(=O)c1cc(F)ccc1Oc1nncnc1N1CC(C2(N(C)Cc3cc(C(N)=O)n(C)n3)CC2)C1)C(C)C` [Compound 145, 3-(((1-(1-(6-(2-(ethyl(isopropyl)carbamoyl)-4-fluorophenoxy)-1,2,4-triazin-5-yl)azetidin-3-yl)cyclopropyl)(methyl)amino)methyl)-1-methyl-1H-pyrazole-5-carboxamide], in assay [1] (setting [3]), the GI50 is above 3300 nM. In assay [2], the IC50 is above 1000 nM.

For the compound `CCN(C(=O)c1cc(F)ccc1Oc1nncnc1N1CC(C2(N(C)Cc3cc(C#N)n(C)n3)CC2)C1)C(C)C` [Compound 146, 2-((5-(3-(1-(((5-cyano-1-methyl-1H-pyrazol-3-yl)methyl)(methyl)amino)cyclopropyl)azetidin-1-yl)-1,2,4-triazin-6-yl)oxy)-N-ethyl-5-fluoro-N-isopropylbenzamide], the GI50 in assay [1] (setting [3]) was determined as 986 nM. Further, the IC50 in assay [2] is above 1000 nM.

In the case of `CCN(C(=O)c1cc(F)ccc1Oc1nncnc1N1CC2(CCN(CC3CCN(CC(O)C(N)=O)CC3)CC2)C1)C(C)C` (stereo not drawn) [Compound 147, 2-((5-(7-((1-(3-amino-2-hydroxy-3-oxopropyl)piperidin-4-yl)methyl)-2,7-diazaspiro[3.5]nonan-2-yl)-1,2,4-triazin-6-yl)oxy)-N-ethyl-5-fluoro-N-isopropylbenzamide], in assay [1] (setting [3]), the GI50 stood at 1390 nM. Also, the IC50 in assay [2] was determined as 116 nM.

As for `CCN(C(=O)c1cc(F)ccc1Oc1nncnc1N1CC2(CCN(Cc3ccc4c(cc(C#N)n4CC(O)C(N)=O)c3C)CC2)C1)C(C)C` (stereo not drawn) [Compound 148], the GI50 in assay [1] (setting [3]) is 221 nM. Also, in assay [2], the IC50 was found to be 5.3 nM.

`CCN(C(=O)c1cc(F)ccc1Oc1nncnc1N1CC2(CCN(CC3CCN(c4ccc(C(N)=O)cn4)CC3)CC2)C1)C(C)C` [Compound 149, 6-(4-((2-(6-(2-(ethyl(isopropyl)carbamoyl)-4-fluorophenoxy)-1,2,4-triazin-5-yl)-2,7-diazaspiro[3.5]nonan-7-yl)methyl)piperidin-1-yl)nicotinamide formate]: the GI50 in assay [1] stood at 6 nM. For the same compound, the IC50 in assay [2] is 2.9 nM.

As to `CCN(C(=O)c1cc(F)ccc1Oc1nncnc1N1CC2(CCN(CC3CCN(c4ccncc4C(N)=O)CC3)CC2)C1)C(C)C` [Compound 150, 4-(4-((2-(6-(2-(ethyl(isopropyl)carbamoyl)-4-fluorophenoxy)-1,2,4-triazin-5-yl)-2,7-diazaspiro[3.5]nonan-7-yl)methyl)piperidin-1-yl)nicotinamide], the GI50 in assay [1] (setting [3]) worked out at 66 nM. For the same compound, the IC50 in assay [2] was 41.5 nM.

Regarding `CCN(C(=O)c1cc(F)ccc1Oc1nncnc1N1CC2(CCN(CC3CCN(c4ccnc(C(N)=O)c4)CC3)CC2)C1)C(C)C` [Compound 151], in assay [1] (setting [3]), the GI50 amounted to 3 nM. Further, the IC50 in assay [2] came to 1.5 nM.

Take `CCN(C(=O)c1cc(F)ccc1Oc1nncnc1N1CC2(CCN(Cc3ccc4c(cc(C(=O)NC)n4CCO)c3C)CC2)C1)C(C)C` [Compound 152, 5-((2-(6-(2-(ethyl(isopropyl)carbamoyl)-4-fluorophenoxy)-1,2,4-triazin-5-yl)-2,7-diazaspiro[3.5]nonan-7-yl)methyl)-1-(2-hydroxyethyl)-N,4-dimethyl-1H-indole-2-carboxamide]: the 50% growth inhibitory concentration (GI50) in assay [1] (setting [3]) was 369 nM. In assay [2], the IC50 turned out to be 357 nM.

Take `CCN(C(=O)c1cc(F)ccc1Oc1nncnc1N1CC(C2(N(C)Cc3ccc4c(cc(C#N)n4CCO)c3C)CC2)C1)C(C)C` [Compound 153]: the GI50 in assay [1] (setting [3]) is 18 nM. For the same compound, the IC50 in assay [2] was 5.2 nM.

With `CCN(C(=O)c1cc(F)ccc1Oc1nncnc1N1CC2(CCN(Cc3ccc4c(cc(C#N)n4CCO)c3C)CC2)C1)C(C)C` [Compound 154], the GI50 in assay [1] (setting [3]) stood at 2 nM. Moreover, the IC50 in assay [2] amounted to 0.8 nM.

Regarding `Cc1c(CN2CCC3(CC2)CN(c2ncnnc2Oc2ccc(F)cc2)C3)ccc2c1cc(C#N)n2CCO` [Compound 155], the GI50 in assay [1] (setting [3]) amounted to 276 nM. Further, the IC50 in assay [2] amounted to 292 nM.

`CCN(C(=O)c1cc(F)ccc1Oc1nnc(NC)nc1N1CC2(CCN(Cc3ccc4c(cc(C#N)n4CCO)c3C)CC2)C1)C(C)C` [Compound 156]: the 50% growth inhibitory concentration (GI50) in assay [1] (setting [3]) worked out at 48 nM. The IC50 in assay [2] worked out at 43.7 nM.

For `COc1cc(F)ccc1Oc1nncnc1N1CC2(CCN(Cc3ccc4c(cc(C#N)n4CCO)c3C)CC2)C1` [Compound 157], in assay [1] (setting [3]), the GI50 turned out to be 252 nM. For the same compound, the IC50 in assay [2] was determined as 305 nM.

Take `CCN(C(=O)c1cc(F)ccc1Oc1nncnc1N1CC2(CCN(Cc3ccc4c(cc(C(N)=O)n4CCO)c3C)CC2)C1)C(C)C` [Compound 158]: in assay [1] (setting [3]), the GI50 worked out at 131 nM. The IC50 in assay [2] worked out at 212 nM.

As to `CCN(C(=O)c1cc(F)ccc1Oc1nncnc1N1CC2(CCN(Cc3ccc4c(cc(C(=O)O)n4CCO)c3C)CC2)C1)C(C)C` [Compound 159], the GI50 in assay [1] (setting [3]) came to 642 nM. For the same compound, in assay [2], the IC50 is 450 nM.

Consider `CCN(C(=O)c1cc(F)ccc1Oc1nnc(C)nc1N1CC2(CCN(Cc3ccc4c(cc(C#N)n4CCO)c3C)CC2)C1)C(C)C` [Compound 160], for which the 50% growth inhibitory concentration (GI50) in assay [1] (setting [3]) amounted to 54 nM. Besides, the IC50 in assay [2] was 87.7 nM.

Consider `Cc1nc(-c2cc(F)ccc2Oc2nncnc2N2CC3(CCN(Cc4ccc5c(cc(C#N)n5CCO)c4C)CC3)C2)n(C(C)C)n1` [Compound 161], for which the GI50 in assay [1] (setting [3]) was found to be 22 nM. Besides, the IC50 in assay [2] is 18.7 nM.
